This is an account of results in patent publication US8609616B2, “Strontium-containing compounds for use in the prevention or treatment of necrotic bone conditions” (Osteologix A/S, priority 2004, dated 2013).

The subject of the experiment is animal model of osteonecrosis. In words: Effect of strontium malonate in an animal model of osteonecrosis (necrotic bone graft in titanium chamber, histology). Type of experiment: in vivo, rat. The following applies: male Sprague-Dawley rats, necrotic bone graft in tibia, 1.6 g/l in drinking water ad libitum (approx. 120 mg strontium malonate/day), 6 weeks; mean (±SD); p=0.038 vs calcium malonate control 2.24 (±1.00). An excerpt: The rationale for the study was to assess the ability of strontium to act as a therapeutic and bone growth promoting (i.e. pro-anabolic) agent in an animal model of osteonecrosis. […] The necrotic graft was degraded, while ingrowth of new bone occurred. At termination of the experiment, the structural grafts was removed and analyzed by histology to quantify both the degradation of the necrotic graft as well as ingrowth of new bone. Concomitant treatment with anabolic and/or anti-resorptive agents may be given after the insertion of the necrotic graft, and the effect monitored after termination of the experiment. This rat model has previously been described (Astrand J, Aspenberg P. BMC Musculoskelet Disord. 2002; 3(1):19).
The salts were prepared in a solution of 1.6 g/l, which is close to saturation (22-25° C.). Thus extensive stirring was required to completely dissolve the substances. A new batch of drinking water was prepared fresh every week for the duration of the experiment. When not in use the solution was stored at room temperature in a closed container. […]
After careful removal from the titanium chamber, the grafts were decalcified in 10% formic acid, 2% formaldehyde for 14 days. […] Each section was subsequently stained with hematoxylin and eosin, and visually scored for appearance of degradation of the necrotic graft as well as ingrowth of new bone.

As to `O=C([O-])CC(=O)[O-].[Sr+2]` [strontium malonate], the “average ingrowth of new bone (ingrowth distance)” value is 3.43 (±1.35 (SD)) mm.
